# Laboratory results as given in US9296725B2, “Heterocyclyl pyrimidine analogues as TYK2 inhibitors” (Cellzome Limited, priority 2012, dated 2016).
# Experiments:
# JAK2 = biological target: T1, JAK2 (Homo sapiens, UniProt O60674); assay: Kinobeads assay, JAK2 (competition binding in mixed Molt4/Ramos cell lysate, dot blot detection); settings: read-out: JAK2 Band (Kinobeads assay potency, IC50)
# T1 construct: endogenous in cells; host or cells: Molt4 (ATCC CRL-1582) and Ramos (ATCC CRL-1596), mixed lysate 1:2
# T1 sequence (O60674 whole entry): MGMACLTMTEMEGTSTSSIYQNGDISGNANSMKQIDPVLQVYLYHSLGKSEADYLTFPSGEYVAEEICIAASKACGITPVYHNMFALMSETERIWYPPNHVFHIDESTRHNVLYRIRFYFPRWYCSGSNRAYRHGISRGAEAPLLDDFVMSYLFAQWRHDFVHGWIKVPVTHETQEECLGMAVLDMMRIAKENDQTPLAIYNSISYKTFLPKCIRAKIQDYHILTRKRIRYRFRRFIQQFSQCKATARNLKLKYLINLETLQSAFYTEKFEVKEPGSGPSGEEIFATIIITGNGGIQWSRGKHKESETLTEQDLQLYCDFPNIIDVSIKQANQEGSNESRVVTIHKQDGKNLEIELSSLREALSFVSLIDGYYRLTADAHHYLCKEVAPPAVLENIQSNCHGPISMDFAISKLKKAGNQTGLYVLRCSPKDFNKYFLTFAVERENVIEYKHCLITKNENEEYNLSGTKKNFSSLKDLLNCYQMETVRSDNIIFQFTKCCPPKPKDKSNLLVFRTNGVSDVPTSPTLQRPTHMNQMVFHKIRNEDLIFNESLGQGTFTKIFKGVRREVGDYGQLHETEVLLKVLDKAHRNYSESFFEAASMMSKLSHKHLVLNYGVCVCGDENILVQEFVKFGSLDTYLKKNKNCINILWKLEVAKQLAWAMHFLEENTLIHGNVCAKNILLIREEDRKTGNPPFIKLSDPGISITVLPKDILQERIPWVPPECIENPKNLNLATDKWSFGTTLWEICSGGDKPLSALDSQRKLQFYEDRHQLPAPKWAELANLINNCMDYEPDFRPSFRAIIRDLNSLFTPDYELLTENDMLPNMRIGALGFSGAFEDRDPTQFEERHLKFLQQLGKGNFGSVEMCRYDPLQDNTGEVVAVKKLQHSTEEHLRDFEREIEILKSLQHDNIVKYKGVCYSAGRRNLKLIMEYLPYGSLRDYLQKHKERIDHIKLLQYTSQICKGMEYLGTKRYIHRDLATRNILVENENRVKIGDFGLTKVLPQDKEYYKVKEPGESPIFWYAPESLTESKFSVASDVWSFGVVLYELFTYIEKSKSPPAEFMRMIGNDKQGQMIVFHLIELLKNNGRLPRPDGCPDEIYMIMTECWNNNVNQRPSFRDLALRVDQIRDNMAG
# In short: (§1)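 JAK2 and TYK2 retained on Kinobeads (immobilized aminopyrido-pyrimidine ligand) from 1:2 Molt4:Ramos lysate (10 mg/mL) were quantified by antibody dot blot (Odyssey infrared) after 3 h cold incubation with compound. Nine-step 1:3 dilution series; IC50 calculated from curves.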
# TYK2 = biological target: T2, TYK2 (Homo sapiens, UniProt P29597); assay: Kinobeads assay, TYK2 (competition binding in mixed Molt4/Ramos cell lysate, dot blot detection); settings: Kinobeads assay, Molt4/Ramos lysate; read-out: TYK2 Band (Kinobeads assay potency, IC50)
# T2 construct: endogenous in cells; host or cells: Molt4 (ATCC CRL-1582) and Ramos (ATCC CRL-1596), mixed lysate 1:2
# T2 sequence (P29597 whole entry): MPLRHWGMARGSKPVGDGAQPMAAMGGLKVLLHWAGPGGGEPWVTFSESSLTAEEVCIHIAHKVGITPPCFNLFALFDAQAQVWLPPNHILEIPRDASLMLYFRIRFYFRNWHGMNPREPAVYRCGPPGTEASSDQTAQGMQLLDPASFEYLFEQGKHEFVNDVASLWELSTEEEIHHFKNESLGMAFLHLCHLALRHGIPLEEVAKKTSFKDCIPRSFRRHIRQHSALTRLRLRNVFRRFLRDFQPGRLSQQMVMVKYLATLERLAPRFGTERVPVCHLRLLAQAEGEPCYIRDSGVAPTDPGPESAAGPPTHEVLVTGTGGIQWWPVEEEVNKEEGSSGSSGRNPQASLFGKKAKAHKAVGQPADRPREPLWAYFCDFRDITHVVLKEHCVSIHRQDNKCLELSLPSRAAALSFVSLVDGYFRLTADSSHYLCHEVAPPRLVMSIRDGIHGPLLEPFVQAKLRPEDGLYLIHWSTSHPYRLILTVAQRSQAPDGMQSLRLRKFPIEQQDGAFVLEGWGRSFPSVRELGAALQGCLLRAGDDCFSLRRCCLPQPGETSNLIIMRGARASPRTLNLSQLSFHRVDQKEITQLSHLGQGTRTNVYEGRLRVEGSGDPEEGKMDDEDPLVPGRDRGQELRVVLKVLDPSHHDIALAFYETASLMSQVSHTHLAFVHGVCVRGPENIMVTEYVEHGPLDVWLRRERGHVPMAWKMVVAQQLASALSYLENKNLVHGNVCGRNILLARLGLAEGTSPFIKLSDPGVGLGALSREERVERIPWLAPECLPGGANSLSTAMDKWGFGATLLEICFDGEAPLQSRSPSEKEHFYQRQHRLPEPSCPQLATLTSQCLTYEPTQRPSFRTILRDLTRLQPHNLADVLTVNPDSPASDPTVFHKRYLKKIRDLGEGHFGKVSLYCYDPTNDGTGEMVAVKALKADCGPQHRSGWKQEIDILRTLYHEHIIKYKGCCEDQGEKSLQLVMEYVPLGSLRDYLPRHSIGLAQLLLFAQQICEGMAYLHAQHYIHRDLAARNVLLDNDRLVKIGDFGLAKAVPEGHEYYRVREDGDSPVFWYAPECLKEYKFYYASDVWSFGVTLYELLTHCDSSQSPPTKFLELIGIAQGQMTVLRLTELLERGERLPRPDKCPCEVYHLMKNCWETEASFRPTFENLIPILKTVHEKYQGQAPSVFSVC
# In short: as §1
SMILES,IC50 (JAK2) [µM],IC50 (TYK2) [µM]
CN(C)C(=O)Cn1cc(Nc2ncc(Cl)c(NCc3ccccc3S(C)(=O)=O)n2)cn1 [Example I-452],0.1 to 1,0.1 to 1
OCCn1cc(Nc2ncc(Cl)c(NCc3ccccc3)n2)cn1 [Example I-192],0.1 to 1,0.01 to 0.1
CS(=O)(=O)NCc1cccc(CNc2nc(Nc3cnn(CC(=O)N4CCOCC4)c3)ncc2Cl)c1 [Example I-396],1 to 10,0.01 to 0.1
Cn1cc(Nc2ncc(Cl)c(NCc3cccc(F)c3F)n2)cn1 [Example I-179],0.1 to 1,0.1 to 1
O=C(Cn1cc(Nc2nccc(NCc3c(F)cccc3F)n2)cn1)N1CCOCC1 [Example I-28],1 to 10,≤ 0.01
C[C@H](CO)NC(=O)Cn1cc(Nc2nccc(NCc3c(F)cc(F)cc3F)n2)cn1 [Example I-456],1 to 10,0.01 to 0.1
COc1c(F)cccc1CNc1nc(Nc2cnn(CC(=O)O)c2)ncc1Cl [Example I-403],1 to 10,0.1 to 1
CC(C)NC(=O)Cn1cc(Nc2nccc(NCc3c(Cl)ccc(F)c3Cl)n2)cn1 [Example I-119],> 10,0.01 to 0.1
CS(=O)(=O)c1ccc(F)cc1CNc1nc(Nc2cn[nH]c2)ncc1Cl [Example I-72],0.1 to 1,0.01 to 0.1
COc1ccc(F)c(CNc2ccnc(Nc3cnn(CC(=O)NCCF)c3)n2)c1F [Example I-126],1 to 10,0.01 to 0.1
CNC(=O)Cn1cc(Nc2ncc(Cl)c(NCc3cccc(OC)c3)n2)cn1 [Example I-243],1 to 10,0.1 to 1
Fc1cc(F)c(CNc2nc(Nc3cnn(CC(F)F)c3)ncc2F)c(F)c1 [Example I-464],> 10,0.1 to 1
Cc1cnc(Nc2cnn(CCO)c2)nc1NCc1ccccc1 [Example I-169],1 to 10,0.1 to 1
Cc1cnc(Nc2cnn(CC(F)F)c2)nc1NCc1cccc(F)c1F [Example I-347],1 to 10,1 to 10
COc1ccc(F)c(CNc2nc(Nc3cnn(CCO)c3)ncc2C)c1F [Example I-304],0.01 to 0.1,≤ 0.01
OCCn1cc(Nc2ncc(F)c(NCc3cccc(F)c3)n2)cn1 [Example I-210],0.1 to 1,0.01 to 0.1
COc1cc(F)c(CNc2nc(Nc3cnn(C)c3)ncc2C)c(F)c1 [Example I-314],1 to 10,0.01 to 0.1
Cn1cc(Nc2ncc(F)c(NCc3cc(F)ccc3S(C)(=O)=O)n2)cn1 [Example I-487],0.1 to 1,0.1 to 1
CS(=O)(=O)c1cccc(CNc2nc(Nc3cnn(CCO)c3)ncc2Cl)c1 [Example I-363],1 to 10,0.1 to 1
COc1ccc(F)c(CNc2nc(Nc3cnn(CC(=O)N4CCOCC4)c3)ncc2Cl)c1F [Example I-377],0.1 to 1,0.01 to 0.1
COCCNC(=O)Cn1cc(Nc2ncc(Cl)c(NCc3ccccc3)n2)cn1 [Example I-273],1 to 10,0.1 to 1
CS(=O)(=O)c1ccccc1CNc1nc(Nc2cnn(CCO)c2)ncc1F [Example I-435],1 to 10,0.1 to 1
OCCn1cc(Nc2ncc(F)c(NCc3ccccc3)n2)cn1 [Example I-193],1 to 10,0.1 to 1
CNS(=O)(=O)c1ccccc1CNc1nc(Nc2cnn(C)c2)ncc1Cl [Example I-473],0.1 to 1,0.1 to 1
Cc1cnc(Nc2cnn(C)c2)nc1NCc1c(F)cc(F)cc1F [Example I-301],1 to 10,0.01 to 0.1
